We go through one molecule from US20140127158A1, “COMBINATION THERAPY FOR HEPATITIS C VIRUS INFECTION” (National Health Research Institute, priority 2012, published 2014).

Molecules are shown by their SMILES.

In data set [1] the test system is HCV genotype 1b replicon. In words: Inhibitor combination study (combination index, CalcuSyn). The conditions noted are these: at the concentrations used in the combination experiments.
For data set [2], the system named is HCV genotype 2a replicon (JFH1). Briefly: Inhibitory assay for HCV replicons (luciferase), genotype 2a JFH1. Format: cell-based, Hepatitis C virus. Here is the method: (2) Cell culture and HCV inhibitors. Huh-7.5 cells and their derivative HCV replicon cell lines were maintained in Dulbecco's modified Eagle's medium (DMEM, Gibco/BRL) that was supplemented with 100 U/mL penicillin-streptomycin (Gibco/BRL), 0.1 mM nonessential amino acid (NEAA, Gibco/BRL) and 10% fetal bovine serum (FBS) heat inactivated at 37° C. in 5% CO2. The HCV replicon cell lines were isolated from colonies as described in Lohman et al., Science 285:110-3 (1999). The culture medium for the replicon cells was additionally supplemented with 0.25 to 0.5 mg/mL of G418, unless specified otherwise. Compound DBPR110 and sofosbuvir were synthesized at the Institute of Biotechnology and Pharmaceutical Research at the National Health Research Institutes in Taiwan. Telaprevir (Lin et al., Antimicrob Agents Chemother, 50:1813-22 (2006)) was purchased from Acme Biosciences (Belmont, Calif.). The compounds were stored at −20° C. as 10 to 500 mM dimethyl sulfoxide (DMSO) stock solutions until the assay. IFN-α was purchased from Calbiochem (La Jolla, Calif.) and stored at −80° C.
(3) Inhibitory assay for HCV replicons. Cells were seeded at 1×10^4 (high-throughput screening assay) or 1×10^5 (regular assay) cells/well in 96- or 12-well plate, respectively, and incubated for 4 h. The medium was then aspirated and replaced with 0.1 (96-well plate) or 1 (12-well plate) mL of complete medium containing a single compound or combinations of compounds in serial concentration(s). The plates with compounds were incubated for 72 h and then assayed for luciferase expression (Promega). The EC50 of each compound was determined independently and used to determine the range of concentrations used for the combination experiments. All data are presented as the means±standard deviations (SD) from three independent experiments. The selectivity index (SI) was calculated as the ratio of the CC50 to the EC50.

The mark [3] stands for this setting: Hepatitis C virus, JFH1 replicon cell line.

`O=C(N[C@@H](C(=O)N1CCC[C@H]1c1ncc(-c2ccc(-c3ccc(-c4cnc([C@@H]5CCCN5C(=O)[C@H](NC(=O)C5CC5)c5ccccc5)s4)cc3)cc2)s1)c1ccccc1)C1CC1` [DBPR110]: the cytotoxicity entry in data set [1] is “No cytotoxicity was observed”. For the same molecule, in data set [2] (CC50/EC50, JFH1), the Selective index is given as >173,130. In addition, in data set [2] (setting [3]), the EC50 worked out at 229 pM and the EC90 worked out at 465 ± 96.6 pM.
